Laboratory results reported in patent US5677285A, “Derivatives of neuraminic acid” (Fidia S.P.A., priority 1992, dated 1997).
Where two headings read alike, the source gives them in different places.

Key:
cerebellar granule cells = assay: Extracellular glutamate and aspartate content in potassium induced depolarization (HPLC); type: cell-based, Sprague-Dawley rats
Protocol: Primary cell cultures of cerebellar granule cells were prepared from 8 day old Sprague-Dawley rats.
Neurons were grown in 35 mm plates for 11-13 days and maintained in a humid environment (95% air and 5% CO2). Cultures (3×10^6 cells/plate) are mainly formed by granule cells (95%, with a small amount (5%) of glial cells (Gallo V. et al.: Selective release of glutamate from cerebellar granule cells differentiating in culture. Proc. Natl. Acad. Sci. USA 79, 7919-23, 1982). Glial proliferation was prevented by arabinofuranoside cytosine.
Derivative ND37 was solubilized at a concentration of […] in dimethylsulfoxide (1% DMSO), and then diluted at various concentrations (0.1-1-10-20 μM) in Locke's solution (154 mM NaCl/5.6 mM KCl/3.6 mM NaHCO3 /2.3 mM CaCl2 /1 mM MgCl2 /5.6mM glucose/5 mM HEPES, pH 7.4). […]
The cell culture medium was aspirated from the plates. Plates were washed (3×2 ml) with Locke's solution, and solutions (750 μl) containing the compound to be tested (concentrations from 0.1 to 20 μM) were added and incubated for 2 hours in an incubator at 37° C. (5% CO2) both in the presence and absence of different depolarizing concentrations of KCl (between 5 and 50 mM). The incubation medium was gathered, filtered through a 0.2 μ filter, and processed (220 μl) for the analysis of the amino acid content.
The glutamate and aspartate content (expressed as μM) was evaluated by HPLC (high pressure liquid chromatography), according to Bidlingmeryer B. A. et al., J. Chromatogr. 336, 93-104, 1984.

[1] = test system: C1300 mouse neuroblastoma cells, Neuro-2a clone; assay: Neuritogenic activity (cells with neurites, optical microscopy); type: cell-based
Protocol: C1300 mouse neuroblastoma cells, Neuro-2a clone, (American Cell Type Culture Collection, Bethesda, Md.) were grown at a density of 10,000 cells/well in a culture medium containing Dulbecco's modified Eagle medium (DMEM, Flow), 10% fetal calf serum (FCS, batch IP 02, Seromed), penicillin (100 units per ml, Irvine), and L-glutamine (2 mM, Sigma). Cells were incubated at 37° C. for 24 hours, and medium was removed and substituted with 350 μl of fresh medium plus compounds to be tested.
Tested Compounds and Their Solubilization
Compounds ND35 and ND37 were solubilized at a concentration of 1×10^-2 M in dimethylsulfoxide (1% DMSO). For the different compounds, progressive dilutions in culture medium were performed (concentrations from 1×10^-5 to 1×10^-4 M).
Neuritogenic activity (cell number with neurites, optical microscopy)
Culture plates were incubated with compounds to be tested and analyzed using a phase contrast microscope (250×). Nine fields with prefixed coordinates were chosen and photographed. Then the total number of cells and those with neurites (length at least double the cell diameter) were counted in blind in each photograph. The percentage of cells with neurites was determined after counting of at least 100 cells (Facci L. et al.: Promotion of neuritogenesis in mouse neuroblastoma cells by exogenous ganglioside GM1. J. Neurochem. Raven Press, New York, 299-305,1984).

[2] = controls + ND 37 (20 uM), no KCl
[3] = group 3: KCl (50 mM) + ND37 (20 uM) as printed, corresponding group KCl (30 mM)
[4] = group 4: KCl (50 mM) + ND37 (20 uM), Table 5
[5] = group 5: KCl (50 mM) + ND37 (20 uM) as printed, corresponding group KCl (25 mM)
[6] = group 6: KCl (50 mM) + ND37 (20 uM) as printed, corresponding group KCl (15 mM)

CCCCCCCCCCCCCCCC(=O)NC1C(O)CC(OCC)(C(=O)N(C)C)OC1C(O)C(O)CO (stereo not drawn) [ND37, β-2-O-ethylglycoside of the dimethylamide of N-palmitoylneuraminic acid]
glutamate increase induced by KCl in the culture medium (cerebellar granule cells; 20 μM): completely abolished
extracellular increase of glutamate and aspartate induced by KCl (cerebellar granule cells; 20 μM, KCl 15, 25, 30, and 50 mM): completely abolished
Extracellular glutamate content (cerebellar granule cells; KCl (50 mM) + ND37 (0.1 uM)): 12.60 ± 0.57 µM
Extracellular glutamate content (cerebellar granule cells; KCl (50 mM) + ND37 (1 uM)): 13.30 ± 1.33 µM
Extracellular glutamate content (cerebellar granule cells; KCl (50 mM) + ND37 (10 uM)): 5.60 ± 2.37 µM
Extracellular glutamate content (cerebellar granule cells; KCl (50 mM) + ND37 (20 uM), Table 4): 0.11 ± 0.09 µM
activity at 0.1 µM (cerebellar granule cells; Rattus norvegicus, 2 h, KCl (50 mM) + ND37 (0.1 uM)): 72%
activity at 1 µM (cerebellar granule cells; Rattus norvegicus, 2 h, KCl (50 mM) + ND37 (1 uM)): 76%
activity at 10 µM (cerebellar granule cells; Rattus norvegicus, 2 h, KCl (50 mM) + ND37 (10 uM)): 32%
activity at 20 µM (cerebellar granule cells; Rattus norvegicus, 2 h, KCl (50 mM) + ND37 (20 uM), Table 4, read-out: % KCl 50 Mm (extracellular glutamate)): 0.01%
activity at 20 µM (cerebellar granule cells; Rattus norvegicus, 2 h, group 3: KCl (50 mM) + ND37 (20 uM) as printed, corresponding group KCl (30 mM), read-out: % corresp. KCl (aspartate)): 0.06%
activity at 20 µM (cerebellar granule cells; Rattus norvegicus, 2 h, group 3: KCl (50 mM) + ND37 (20 uM) as printed, corresponding group KCl (30 mM), read-out: % corresp. KCl (glutamate)): 0.01%
activity at 20 µM (cerebellar granule cells; Rattus norvegicus, 2 h, group 4: KCl (50 mM) + ND37 (20 uM), Table 5, read-out: % corresp. KCl (aspartate)): 0.13%
activity at 20 µM (cerebellar granule cells; Rattus norvegicus, 2 h, group 4: KCl (50 mM) + ND37 (20 uM), Table 5, read-out: % corresp. KCl (glutamate)): 0.02%
activity at 20 µM (cerebellar granule cells; Rattus norvegicus, 2 h, group 5: KCl (50 mM) + ND37 (20 uM) as printed, corresponding group KCl (25 mM), read-out: % corresp. KCl (aspartate)): 0.28%
activity at 20 µM (cerebellar granule cells; Rattus norvegicus, 2 h, group 5: KCl (50 mM) + ND37 (20 uM) as printed, corresponding group KCl (25 mM), read-out: % corresp. KCl (glutamate)): 0.06%
activity at 20 µM (cerebellar granule cells; Rattus norvegicus, 2 h, group 6: KCl (50 mM) + ND37 (20 uM) as printed, corresponding group KCl (15 mM), read-out: % corresp. KCl (aspartate)): 0.09%
activity at 20 µM (cerebellar granule cells; Rattus norvegicus, 2 h, group 6: KCl (50 mM) + ND37 (20 uM) as printed, corresponding group KCl (15 mM), read-out: % corresp. KCl (glutamate)): 0.34%
inhibition at 0.1 µM (cerebellar granule cells; Rattus norvegicus, 2 h, 0.1 μM, read-out: reduction of extracellular glutamate induced by KCl): ~30%
Extracell. aspartate content (cerebellar granule cells; [2]): 0.039 µM
Extracell. glutamate content (cerebellar granule cells; [2]): 0.362 µM
basal levels (controls) of extracellular glutamate and aspartate (cerebellar granule cells; doses up to 20 μM): did not modify
Extracell. aspartate content (cerebellar granule cells; [3]): 0.063 µM
Extracell. glutamate content (cerebellar granule cells; [3]): 0.318 µM
Extracell. aspartate content (cerebellar granule cells; [4]): 0.078 µM
Extracell. glutamate content (cerebellar granule cells; [4]): 0.246 µM
Extracell. aspartate content (cerebellar granule cells; [5]): 0.107 µM
Extracell. glutamate content (cerebellar granule cells; [5]): 0.330 µM
Extracell. aspartate content (cerebellar granule cells; [6]): 0.046 µM
Extracell. glutamate content (cerebellar granule cells; [6]): 0.899 µM
Cells with neurities (%) ([1]; 1 × 10^-4 M): 48 ± 9%
Cells with neurities (%) ([1]; 1 × 10^-5 M): 5 ± 3%
neuritogenesis in vitro ([1]; 1×10^-5 to 1×10^-4 M): induce neuritogenesis
Cells with neurities (%) ([1]; 2.5 × 10^-5 M): 8 ± 4%
Cells with neurities (%) ([1]; 5 × 10^-5 M): 27 ± 5%
